Laboratory results reported in US9657351B2, “MRNA-based gene expression for personalizing patient cancer therapy with an MDM2 antagonist” (Hoffmann-La Roche Inc., priority 2013, dated 2017).

What was measured:
Assay in all cases: COMPOUND A In Vitro Assay
Assay type in all cases: cell-based
HeLa S3 = conditions: Homo sapiens, Cervix, TP53 Mutant
From the text: (§1) To generate an MDM2 antagonist therapy predictive signature, the response of MDM2 antagonist therapy in vitro with gene expression profiling (FIG. 1) is combined. A bank of 287 human cancer cell lines, collectively termed the Cell Lines for Oncology/Chugai ACcumulative Tumour EncycLopedia (CELLO/CACTEL), representing a broad array of diverse human cancer tumor types are subject to evaluation using several high-throughput genomic technology platforms. The mutational status of nucleic acids from each cell line is determined by exome sequencing. Messenger RNA (mRNA) expression levels at baseline, prior to MDM2 antagonist therapy, are obtained via RNA sequencing. MDM2 antagonist therapy COMPOUND A, sometimes referred to herein as RG7112, responses are obtained by assays known to those skilled in the art such as RNA sequencing and microarray measurement using Gene Chip Human Genome U133 Plus 2.0 Array. The MDM2 therapy responses are obtained by high throughout screening assays. Depending on their responses to COMPOUND A these cell lines are classified as either sensitive, defined as IC50<=1, or resistant, defined as IC50>=10.
(§2) 281 cells are treated with MDM2 antagonists and the IC50 (therapy response) is generated. The cell lines span a broad range of tumor cell types of derivation.

NCI-H661 = conditions: Homo sapiens, Lung, TP53 Mutant
From the text: as §1, §2

PC-3 = conditions: Homo sapiens, Prostate, TP53 Mutant
From the text: as §1, §2

A-375 = conditions: Homo sapiens
From the text: as §1, §2

HCC1954 = conditions: Homo sapiens, Breast, mammary gland, TP53 Mutant
From the text: as §1, §2

OPM-2 = conditions: Homo sapiens, Lymphocyte B, TP53 Mutant
From the text: as §1, §2

ES2 = conditions: Homo sapiens, ES-2, Ovary, TP53 NA
From the text: as §1, §2

SK-MES-1 = conditions: Homo sapiens, Lung, TP53 Mutant
From the text: as §1, §2

NCI-H1838 = conditions: Homo sapiens, Lung, TP53 Mutant
From the text: as §1, §2

MKN-74 = conditions: Homo sapiens
From the text: as §1, §2

NCI-H1944 = conditions: Homo sapiens, Lung, TP53 Wild type
From the text: as §1, §2

VCaP = conditions: Homo sapiens, Prostate, TP53 Mutant
From the text: as §1, §2

NCI-H2171 = conditions: Homo sapiens, Lung, TP53 Mutant
From the text: as §1, §2

NCI-H2227 = conditions: Homo sapiens, Lung, TP53 Mutant
From the text: as §1, §2

MDA-MB-361 = conditions: Homo sapiens, Breast, mammary gland, TP53 Mutant
From the text: as §1, §2

UM-UC-3 = conditions: Homo sapiens, UMUC3, Urinary, bladder, TP53 Mutant
From the text: as §1, §2

T24 = conditions: Homo sapiens, T-24, Urinary, bladder, TP53 Mutant
From the text: as §1, §2

U266B1 = conditions: Homo sapiens
From the text: as §1, §2

SW626 = conditions: Homo sapiens, Ovary, TP53 Mutant
From the text: as §1, §2

Hs 766T = conditions: Homo sapiens, Hs766T, Pancreas, TP53 Mutant
From the text: as §1, §2

KMS-28BM = conditions: Homo sapiens, Lymphocyte, TP53 Mutant
From the text: as §1, §2

A549 = conditions: Homo sapiens
From the text: as §1, §2

SW1417 = conditions: Homo sapiens, Intestine, large, colon, TP53 Mutant
From the text: as §1, §2

PLC/PRF/5 = conditions: Homo sapiens, Liver, TP53 Mutant
From the text: as §1, §2

LS 174T = conditions: Homo sapiens, LS174T
From the text: as §1, §2

KMS-12-PE = conditions: Homo sapiens, Plasma, TP53 Mutant
From the text: as §1, §2

Calu-1 = conditions: Homo sapiens, Lung, TP53 Wild type
From the text: as §1, §2

PC-13 = conditions: Homo sapiens, Lung, TP53 Mutant
From the text: as §1, §2

SW480 = conditions: Homo sapiens, Intestine, large, colon, TP53 Mutant
From the text: as §1, §2

SUM52PE = conditions: Homo sapiens, Breast, TP53 Wild type
From the text: as §1, §2

NIH:OVCAR-3 = conditions: Homo sapiens, Ovary, TP53 Mutant
From the text: as §1, §2

CEM/C2 = conditions: Homo sapiens, Lymphocyte T, peripheral blood, TP53 Mutant
From the text: as §1, §2

HCC1395 = conditions: Homo sapiens, Breast, mammary gland, TP53 Mutant
From the text: as §1, §2

LoVo = conditions: Homo sapiens, Intestine, large, colon, TP53 Wild type
From the text: as §1, §2

MEG-01 = conditions: Homo sapiens, Leukemia, chronic myeloid, TP53 Mutant
From the text: as §1, §2

SW579 = conditions: Homo sapiens, Thyroid gland, TP53 Mutant
From the text: as §1, §2

SMILES: CCOc1cc(C(C)(C)C)ccc1C1=N[C@@](C)(c2ccc(Cl)cc2)[C@@](C)(c2ccc(Cl)cc2)N1C(=O)N1CCN(CCCS(C)(=O)=O)CC1 [COMPOUND A]
- IC50 (HeLa S3): 20 µM
- IC50 (NCI-H661): 11 µM
- IC50 (PC-3): 9 µM
- IC50 (A-375; A-375, A-375, Skin, TP53 Wild type): 0.32 µM
- IC50 (A-375; A-375, A-375 cells): 0.3 µM
- IC50 (HCC1954): 12 µM
- IC50 (OPM-2): 13 µM
- IC50 (ES2): 3.3 µM
- IC50 (SK-MES-1): 6 µM
- IC50 (NCI-H1838): 9.8 µM
- IC50 (MKN-74; MKN-74, MKN-74, Muscle, smooth, stomach, TP53 Wild type): 0.88 µM
- IC50 (MKN-74; MKN-74, MKN-74 cells): 0.9 µM
- IC50 (NCI-H1944): 7 µM
- IC50 (VCaP): 13 µM
- IC50 (NCI-H2171): 11 µM
- IC50 (NCI-H2227): 16 µM
- IC50 (MDA-MB-361): 21 µM
- IC50 (UM-UC-3): 15 µM
- IC50 (T24): 21 µM
- IC50 (U266B1; U266B1, Lymphocyte B, TP53 Mutant): 18 µM
- IC50 (U266B1; U266B1 cells): 18 µM
- IC50 (SW626): 9.5 µM
- IC50 (Hs 766T): 17 µM
- IC50 (KMS-28BM): 9 µM
- IC50 (A549; A549, A549, Lung, TP53 Wild type): 0.86 µM
- IC50 (A549; A549, A549 cells): 0.9 µM
- IC50 (SW1417): 9.9 µM
- IC50 (PLC/PRF/5): 7 µM
- IC50 (LS 174T; LS 174T cells): 0.6 µM
- IC50 (LS 174T; LS 174T, Intestine, large, colon, TP53 Wild type): 0.59 µM
- IC50 (KMS-12-PE): 5.3 µM
- IC50 (Calu-1): 14 µM
- IC50 (PC-13): 14 µM
- IC50 (SW480): 12 µM
- IC50 (SUM52PE): 8.7 µM
- IC50 (NIH:OVCAR-3): 17 µM
- IC50 (CEM/C2): 9.3 µM
- IC50 (HCC1395): 20 µM
- IC50 (LoVo): 1.3 µM
- IC50 (MEG-01): 17 µM
- IC50 (SW579): 16 µM
